Data published in US8962024B2, “Method for treating primary insomnia” (Neurim Pharmaceuticals (1991) Ltd, priority 2001, dated 2015).

What was measured:
[1] = system: elderly primary insomnia patients; assay: Full-night polysomnographic recordings after 3 weeks of treatment (Example 1); format: in vivo, human
Procedure: (§1) The effect of a prolonged-release formulation of melatonin on sleep quantity and quality in 40 elderly primary insomnia patients (aged 76 [SD 8] years) were studied in a randomized, double-blind, two parallel group study. The subjects were treated for 3 weeks every evening with melatonin (2 mg prolonged-release formulation) or placebo. Full-night polysomnographic recordings were performed on the last two days of treatment to measure quantitative aspects of sleep. On each morning following sleep recording in the laboratory, a battery of psychomotor tests was taken by all patients to assess daytime vigilance. In addition, patients recorded every day in diaries their perceived quality of sleep the previous night.

[2] = system: elderly primary insomnia patients; assay: Battery of psychomotor tests to assess daytime vigilance (Example 1); format: in vivo, human; details: 2 mg prolonged-release formulation
Procedure: as §1

[3] = system: elderly primary insomnia patients; assay: Patient diaries of perceived quality of sleep (Example 1); format: in vivo, human; details: 2 mg prolonged-release formulation, 3 weeks
Procedure: as §1

[4] = system: elderly primary insomnia patients; assay: Subjectively assessed quality of sleep and daytime alertness on 100 mm line (Example 2); format: in vivo, human; details: 2 mg per night prolonged-release, 3 weeks
Procedure: The effect of a prolonged-release formulation of melatonin on subjectively assessed sleep quality and daytime vigilance in 170 elderly primary insomnia patients (aged 68.5 [SD 8.3] years) were studied in a randomized, double-blind, two parallel group study. The subjects were treated for 2 weeks with placebo to establish baseline characteristics and then for 3 weeks with melatonin (2 mg per night of prolonged-release formulation) or placebo. On the last three days of the baseline and treatment periods patients were asked to assess the quality of their sleep the previous night and their feeling in the morning. The quality of sleep question was “How would you compare the quality of sleep using the medication with non-medicated (your usual) sleep?” The patients marked the level of their perceived quality of sleep on a 100 mm, non-hatched horizontal line with two endpoints. The left endpoint was labeled “more restless than usual” and the right endpoint was labeled “more restful than usual”. The waking state question was “How do you feel now?” The patients marked the level of their perceived waking state on a 100 mm, non-hatched horizontal line with two endpoints. The left endpoint was labeled “tired” and the right endpoint was labeled “alert”. The distance of the patient mark from the right endpoint in mm was measured (a reduction in value therefore indicates a better sleep or less tired state). The mean distance across the three nights was calculated.

[5] = system: primary insomnia patients (aged 20-80 years); assay: Subjectively assessed quality of sleep and daytime alertness on 100 mm line (Example 3); format: in vivo, human; details: for Change in perceived daytime alertness, mean in mm / Change in perceived quality of sleep, mean in mm: 2 mg per night prolonged-release, 3 weeks
Procedure: The effect of a prolonged-release formulation of melatonin on subjectively assessed sleep quality and daytime vigilance in 170 elderly primary insomnia patients (aged 68.5 [SD 8.3] years) were studied in a randomized, double-blind, two parallel group study. The subjects were treated for 2 weeks with placebo to establish baseline characteristics and then for 3 weeks with melatonin (2 mg per night of prolonged-release formulation) or placebo. On the last three days of the baseline and treatment periods patients were asked to assess the quality of their sleep the previous night and their feeling in the morning. The quality of sleep question was “How would you compare the quality of sleep using the medication with non-medicated (your usual) sleep?” The patients marked the level of their perceived quality of sleep on a 100 mm, non-hatched horizontal line with two endpoints. The left endpoint was labeled “more restless than usual” and the right endpoint was labeled “more restful than usual”. The waking state question was “How do you feel now?” The patients marked the level of their perceived waking state on a 100 mm, non-hatched horizontal line with two endpoints. The left endpoint was labeled “tired” and the right endpoint was labeled “alert”. The distance of the patient mark from the right endpoint in mm was measured (a reduction in value therefore indicates a better sleep or less tired state). The mean distance across the three nights was calculated. The effect of melatonin on subjectively assessed sleep quality and daytime vigilance in 131 primary insomnia patients (aged 20-80 years) were studied in a randomised, double-blind, parallel group study. The subjects were treated for 1 week with placebo to establish baseline characteristics and then for 3 weeks with melatonin (2 mg per night of prolonged-release formulation) or placebo. On the last three days of the baseline and treatment periods patients were asked to assess the quality of their sleep the previous night and their feeling at daytime as described in Example 2.

[6] = system: polysomnographically pre-screened insomniacs; details: 1 and 5 mg at 10:45 pm for one night each, cited from earlier work
[7] = system: patients with psychophysiological insomnia; details: 5 mg at 8:00 pm for 1 week; cited from earlier work
[8] = system: elderly patients with sleep maintenance insomnia; details: immediate and controlled release formulations, 0.5 and 5 mg, cited from earlier work
insomniac patients = details: 75 mg per os at 10 PM daily for 14 consecutive days, cited from earlier work
[9] = system: healthy elderly volunteers; assay: Battery of psychomotor tasks after an evening tablet (Example 4); format: in vivo, human
Procedure: (§2) The effect of melatonin (2 mg prolonged-release formulation), N, N, 6-trimethyl-2-p-tolylimidazo[1,2-a]pyridine-3-acetamide (zolpidem; 10 mg) and placebo on psychomotor skills and driving performance were assessed in 16 healthy elderly volunteers age 59.4 years (SD 3.2). In a randomized, double-blind, crossover study the subjects were given a tablet of placebo in the evening to establish baseline and then a tablet of melatonin, zolpidem or placebo in a random order in the evening with one week with no treatment in between treatments. A battery of psychomotor tasks, driving performance and wake EEG during a driving test were studied in the patients at pre-selected intervals after the administration of the tablet.

[10] = system: healthy elderly volunteers; assay: Driving performance test after an evening tablet (Example 4); format: in vivo, human; details: 2 hours post-dosing; zolpidem 10 mg, melatonin prolonged release 2 mg
Procedure: as §2

[11] = 2 mg prolonged-release formulation, 3 weeks, versus placebo
[12] = zolpidem 10 mg single evening tablet

COc1ccc2[nH]cc(CCNC(C)=O)c2c1 [melatonin]
sleep onset latency (SL) time shortened on average, compared to placebo ([1]; 2 mg prolonged-release formulation every evening for 3 weeks, P=0.011): 9 min
duration of wake prior sleep onset (DWAPSO) compared to placebo ([1]; 2 mg prolonged-release formulation, 3 weeks, p=0.011): improved significantly
% of time spent asleep prior to sleep onset (DWAPSOP) compared to placebo ([1]; 2 mg prolonged-release formulation, 3 weeks, p=0.02): improved significantly
sleep architecture or all night EEG spectral analysis [1, 11]: no differences between groups
sleep maintenance variables (number of awakenings, DWASO, sleep efficiency, total sleep time) [1, 11]: no differences between melatonin and placebo
Critical Flicker fusion test and total reaction time, melatonin vs. placebo ([2]; at the end of treatment): significant treatment effects
psychomotor skills compared to placebo-treated group ([2]; morning after sleep recording): significantly higher
ease of getting to sleep as evaluated in diaries, compared to placebo [3]: did not evaluate the ease of getting to sleep as being better
quality of sleep as judged by patients in diaries [3]: improved
quality of sleep and daytime alertness compared to placebo [4]: significantly improved
Change in perceived quality of sleep, change in mm mean ([4]; 170 elderly patients, reduction = better sleep): −24.3 mm
Change in perceived daytime alertness, change in mm mean ([4]; 170 elderly patients, reduction = less tired): −16.8 mm
quality of sleep and daytime alertness ([5]; 55 years and older patients): improvement
Change in perceived daytime alertness, mean in mm ([5]; Patients aged 55 and over): −16.3 mm
Change in perceived quality of sleep, mean in mm ([5]; Patients aged 55 and over): −13.1 mm
Change in perceived daytime alertness, mean in mm ([5]; Patients aged less than 55): −4.0 mm
Change in perceived quality of sleep, mean in mm ([5]; Patients aged less than 55): −1.6 mm
quality of sleep and daytime alertness compared to placebo ([5]; patients <55 years of age): significant worsening
sleep latency, sleep efficiency, total sleep time, wake after sleep onset ([6]; 10 insomniacs): did not alter
patient-reported sleep quality [6]: improved
rested in the morning, patient-reported [6]: not more rested
total sleep time as believed by the patients [6]: shorter
patients unable to distinguish the period of active melatonin treatment [7]: 8 patients out of 15
sleep quantity or quality [7]: no reported change
sleep latency ([8]; 30 min before sleep): reduced
reported sleep quality or daytime measure of mood and alertness [8]: No melatonin-induced changes
wake time after sleep onset or total sleep time [8]: did not alter
subjective assessment of total sleep time and daytime alertness (insomniac patients; 13 patients): significant increase
patients reporting no significant effect on subjective feelings of well-being (insomniac patients): 7/13

Cc1ccc(-c2nc3ccc(C)cn3c2CC(=O)N(C)C)cc1 [zolpidem, N, N, 6-trimethyl-2-p-tolylimidazo[1,2-a]pyridine-3-acetamide]
Memory efficiency, both recalls (immediate and delayed), compared to placebo and melatonin 2 mg ([9]; zolpidem 10 mg): decreased
impairments compared to placebo across measures of attention, episodic secondary memory and motor coordination [9, 12]: several acute impairments
time post-dosing by which acute impairments were resolved [9, 12]: ≤ 12.5 h
number of collisions [10]: increased number of collisions
